The source of these data is patent publication EP3492483A1, “COMPOUNDS AND METHODS FOR TREATING BACTERIAL INFECTIONS” (The Washington University, priority 2009, dated 2011).

In brackets after ≈: the same amount, converted by molar mass. Entries after “also recorded” stand apart in the source; their conditions may differ.

Data set [1] deals with T1, FimH (Escherichia coli, UniProt P08191).
From the text: In order to more accurately determine the relative contributions of both binding affinity to FimH versus other compound properties to the potency seen in the cellular HA titer assay, a high-throughput fluorescence polarization (FP) (or anisotropy) competitive binding assay was developed using a fluorescent-labeled mannoside ligand shown in Scheme 4.
A fluorescent polarization assay was developed and miniaturized to monitor the direct binding of a synthesized fluorescently labeled butyl mannose derivative to the FimH receptor as well as competitive displacement by other synthetic mannosides. This fluorescent polarization assay provides a rapid method for monitoring improvements to receptor affinity during the synthetic process, as well as providing Kd binding affinity measurements.
In data set [2] the target is T1, FimH. Conditions: previously reported, SPR; cited from earlier work.
Data set [3] has as its system UTI89. The data set can be described thus: Bladder bacterial titer (CFU), mouse UTI model, UTI89. In kind it is in vivo, mice. The note with it: for total bacterial CFUs: 6 hpi. The method, then:
(§1) After invasion, UPEC are able to rapidly replicate to form IBCs, thus dramatically expanding in numbers. After maturation of the IBC, bacteria are able to disperse from the biomass and spread to neighboring cells to expand the buildup in bacterial numbers via next generation IBC. The ability of mannosides to block IBC formation was evaluated based on LacZ staining of whole mount bladders, a protocol developed to enumerate IBCs. Whole bladder titers were also determined by quantifying colony forming units (CFUs) at 6 hours post-infection and later time points as test compounds were further developed.
Animal infections. Bacteria were grown under type 1 pili-inducing conditions (2x24 h at 37°C statically in LB). The bacteria were harvested and resuspended to an OD600 of 0.5 in PBS. Eight-week-old C3H/HeN (Harlan) female mice were anesthetized by inhalation of isoflurane and infected via transurethral catheterization with 50 µl of the bacterial suspension, resulting in 1-2 x 10^7 inoculum. At 6 hpi, mice were sacrificed by cervical dislocation under anesthesia and the bladders were immediately harvested and processed as described below. All animal studies using mice were approved by the Animal Studies Committee of Washington University (Animal Protocol Number 20100002).
Bladder tissue bacterial titer determination. Mannoside ZFH-2056 was administered either IP (5 mg/kg) or orally (100 mg/kg) 30 min prior to inoculation with UTI89. To enumerate the bacteria present, mice were sacrificed at 6 hpi and bladders were aseptically removed and homogenized in 1 ml PBS, serially diluted and plated onto LB agar plates. CFU was enumerated after 16 h of growth at 37 °C.

A short description of data set [4]: Urine pharmacokinetic analysis of mannoside (LC-MS). It counts as in vivo, mice. The method, then:
Pharamacokinetic analysis. […] An equal volume of 10 µM internal standard (ZFH-2050) was added to the urine.

The nature of data set [5]: Solubility (qualitative statements).
Data set [6] deals with PBC-1. Description: Bladder bacterial titer (CFU), mouse UTI model, TMP-SMZ resistant strain. It counts as in vivo, mice. Here is the method:
(§2) Mice were either untreated or IP treated with mannoside ZFH-2056 30 min prior to inoculation with bacteria. […] Not only do the bacteria escape the immune system in their intracellular niche, they are also able to escape exposure to effective antibiotics.

The test system of data set [7] is PBC-1. The data set can be described thus: Growth curve with TMP-SMZ (MIC). In kind it is cell-based, UPEC.
The test system of data set [8] is UTI89. Description: Gentamicin protection assay of infected mouse bladders. In kind it is in vivo, mice. An excerpt:
Based on the extensive elucidation of the UPEC pathogenic cascade, critical nodes in pathogenesis that mannosides would target and thereby have powerful and potent therapeutic ramifications were identified. The first step in the UPEC pathway involves FimH-mediated colonization of the bladder epithelium via the recognition of mannose receptors. Bacterial invasion into superficial bladder umbrella cells can then ensue. […] To test this, a well-established gentamicin protection assay that allows the determination of the luminally bound fraction versus the intracellular fraction was utilized (Fig 10). […] This may be due to contamination from bacteria in the urine or bacteria that are non-specifically associated with the epithelium. In any case, blocking invasion blocks the ability of the bacteria to rapidly expand in numbers. This is due to the ability of the mannosides to block the IBC mechanism.
The efficacy of in vivo mannoside treatment was evaluated after dosing animals with mannoside either IP or PO 30 min prior to infecting with UTI89. At 6 hpi the bladders were removed and total bacterial CFUs were quantitated. […] Gentamicin efficiently kills extracellular UPEC but is unable to penetrate tissue and thus intracellular bacteria survive gentamicin treatment18. […] In bladders from untreated mice, 10^3 - 10^4 CFUs remained after gentamicin treatment.
Gentamicin protection assay. […] The bladders were then bisected twice and washed three times in 500 µl of PBS each. The wash fractions were pooled, lightly spun at 500 rpm for 5 min to pellet exfoliated bladder cells, serially diluted, and plated onto LB agar to obtain the luminal fraction. The bladders were treated with 100 µg of gentamicin/ml for 90 min at 37°C. After treatment, the bladders were washed twice with PBS to eliminate residual gentamicin, homogenized in 1 ml of PBS, serially diluted, and plated onto LB agar to enumberate the CFUs in the intracellular fraction.

The subject of data set [9] is UTI89 biofilm. Description: Disruption of preformed biofilm. Conditions: for IC50: another 24h. In kind it is cell-based, UPEC.
Method: (§3) These mannosides were evaluated first for their ability to inhibit biofilm formation or disrupt preformed biofilms. Biofilm inhibition was evaluated on FimH-dependent UTI89 biofilms grown on PVC in LB at room temperature. […] Biofilm disruption was evaluated by the addition of mannosides to preformed 24 h biofilms followed by growth for an additional 16 h.
For biofilm disruption activity in PVC plates, UTI89 was grown in LB broth in wells of PVC microtiter plates at 23°C. After 24 h of growth, mannoside was added and biofilms were grown for an additional 16h. Wells were then rinsed, stained with crystal violet and quantified. For biofilm disruption activity on PVC coverslips, UTI89 was grown in LB broth in 50 mL conicals containing PBC coverslips at 23°C. […] Coverslips were then rinsed, fixed with 2% paraformaldehyde (v/v), stained with SYTO9 (1:1000 in PBS; Molecular Probes) and observed with a Zeiss LSM410 confocal laser scanning microscope under a 63X objective.
UTI89 was grown in LB in PVC plates and allowed to form biofilm at RT for 24 or 48h. […] Biofilm was then allowed to grow for another 24h at RT. Biofilm formation was then quantitated using the standard crystal violet assay.
Data set [10] has as its system UTI89. Description: IBC enumeration by LacZ staining of whole bladders. In kind it is in vivo, mice. Here is the method: as §1
To test the efficacy of the mannosides in vivo, UTI89 expressing type 1 pili were pre-incubated with mannosides, inoculated into mice and IBCs were quantitated at 6 hours post-infection (hpi).
Enumeration of bladder IBCs. For bacterial pretreatment experiments, mannoside was added to the bacterial suspension and incubated for 20 min. For animal pretreatment experiments, mannoside ZFH-2056 was administered either IP (5 mg/kg) or orally (100 mg/kg) 30 min prior to inoculation with UTI89. To accurately count the number of IBCs, mice were sacrificed 6 hpi and bladders were aseptically removed, bisected, splayed on silicone plates and fixed in 2% paraformaldehyde (v/v). IBCs, readily discernable as punctate violet spots, were quantified by LacZ staining of whole bladders.

The subject of data set [11] is UTI89 biofilm. Description: Biofilm formation inhibition assay (PVC, crystal violet). In kind it is cell-based, UPEC. The note with it: PVC, LB, room temperature; read-out: IC50 of mannoside on UTI89 biofilm formation.
Method: First, the ability of mannoside derivatives to prevent UPEC type 1 dependent biofilm formation in the published Kolter assay was measured as optimized for the prototypic UTI89 strain used in these assays.
as §3
UTI89 biofilm was grown in LB +/- mannoside for 24 h at 22°C in PVC plates and quantitated using crystal violet.
Biofilm assay. UTI89 was grown in LB broth in wells of PVC microtiter plates at 23°C in the presence of individual mannosides at varying concentrations. After 48 h of growth, wells were rinsed with water and stained with crystal violet for quantification as described. For biofilm disruption activity in PVC plates, UTI89 was grown in LB broth in wells of PVC microtiter plates at 23°C. After 24 h of growth, mannoside was added and biofilms were grown for an additional 16h. Wells were then rinsed, stained with crystal violet and quantified.
Data set [12] deals with T2, FimH (Escherichia coli, UniProt Q1R2J4).
T2 construct: endogenous in cells; host or cells: type 1 piliated UPEC bacteria
The data set can be described thus: cell-based. More on the design: species or system UPEC. Conditions: for inhibition of FimH-dependent hemagglutination: in words.
Method: In some embodiments, activity of the compound is measured using hemmagglutination titer of guinea pig red blood cells. Hemagglutination of guinea pig red blood cells by type1 piliated UPEC is dependent upon FimH mannose binding ability and serial dilutions allow a quantitative analysis.
Biological activity against FimH was evaluated using a guinea pig red blood cell-based hemagglutination (HA) assay (ref) in which the concentration of the mannoside on reducing agglutination by 50% was used as the primary endpoint (50% HA titer).
Hemagglutination of guinea pig red blood cells by type1 piliated UPEC is dependent upon FimH mannose binding ability.

Data set [13] has as its system UTI89. The data set can be described thus: Bladder bacterial titer (CFU), mouse UTI model, UTI89. In kind it is in vivo, mice. Conditions: for bacterial titers upon boosting: pretreatment plus 2 treatments every 8h.
For data set [14] the following is noted: 3 days of 54 µg/ml TMP and 270 µg/ml SMZ in drinking water. Here is the method: as §2
Antibiotic treatment. […] Water was changed daily for 3 days prior to inoculation with UTI89.

[15] abbreviates: 1 hour post-infection, in presence of mannoside.

The compound `CCCCO[C@H]1O[C@H](CO)[C@@H](O)[C@H](O)[C@@H]1O` [Butylαman, α-D-butylmannoside, reference compound] returned an EC50 at FimH [1] of 245 nM. Moreover, the Kd at FimH [2] was 151 nM.
Take `CNC(=O)c1cc(C(=O)NC)cc(-c2ccc(O[C@H]3O[C@H](CO)[C@@H](O)[C@H](O)[C@@H]3O)cc2)c1` [Compound 50, N1,N3-dimethyl-5-[4-[(2R,3S,4S,5S,6R)-3,4,5-trihydroxy-6-(hydroxymethyl)tetrahydropyran-2-yl]oxyphenyl]benzene-1,3-dicarboxamide]: the bladder titers result with UTI89 [3] (5mg/kg 30 min prior, 10^7 UTI89, 6 hpi) was “significantly inhibited bacterial infection”; in the data set on UTI89 [13] (5mg/kg 30 min prior, 10^7 UTI89, 24 hpi) it was “significantly reduced bacterial titers”; in the data set on UTI89 [13] (50mg/kg 30 min prior, 10^7 UTI89, 6 hpi) it was “significantly inhibited bacterial infection”; with UTI89 [13] (50mg/kg 30 min prior, 10^7 UTI89, 24 hpi), “significantly reduced bacterial titers”. In addition, the “total bacterial CFUs” value with UTI89 [3] (IP (5 mg/kg) 30 min prior to inoculation, listed as ZFH-2056, 5 mg/kg) is recorded as “significant drop in bacterial counts; also recorded: significant drop in bacterial load”; in the data set on UTI89 [3] (oral (100 mg/kg) 30 min prior to inoculation) it was “significant drop in bacterial counts”. For the same compound, the “lower initial urine concentration versus IP” value in data set [4] (100 mg/kg PO) was 10 fold. Moreover, in data set [4] (100 mg/kg PO, 8 hours post-dosing), the “higher urine levels versus IP” value worked out at 10 fold. The “concentration in the urine” value in [4] (IP 5 mg/kg and 10 mg/kg, 30 min after treatment) was roughly 5000 µM. Further, in data set [4] (IP dosing, post injection), the “time by which mostly gone (eliminated in the urine)” value lay in the range of 6 to 8 h. Moreover, the “drug cleared to the urine intact” value in data set [4] (mouse, in vivo) is greater than 95%. In addition, in data set [4] (mouse, urine, IP, eight hours after dosing, read-out: level in the urine), the concentration at 8 h is no more than 0.74 µM. Further, the solubility entry in data set [5] (relative to di-ester 15a) is on record as “much improved solubility”. Also, in the data set on PBC-1 [6] (Fig. 29), the “efficacy against TMP-SMZ resistant strains” value was “increased efficacy”. In addition, in the data set on PBC-1 [6] (IP 30 min prior to inoculation, 6 hpi), the “bacterial load in the bladder” value is reported as “significant drop in bacterial load”. Also, the results for the half-maximal effective concentration (EC50) on FimH [1] and on FimH [12] were 87 nM and 370 nM, respectively. Also, the “effect on efficacy of TMP-SMZ killing” value with PBC-1 [7] (100 µM mannoside) is “not found to increase the efficacy of TMP-SMZ killing”. The luminal bacteria entry with UTI89 [8] (6 hpi, IP (5 mg/kg) pretreatment) was “significantly reduced”. Also, the “intracellular bacteria (CFUs after gentamicin)” value in the data set on UTI89 [8] (6 hpi, IP (5 mg/kg) pretreatment, listed as ZFH-2056) was “eliminated all CFUs; also recorded: significantly reduced”. For the same compound, the “biofilm structure by confocal microscopy” value in the data set with UTI89 biofilm [9] (0.3 µM, 24 h biofilm plus 16 h) is reported as “lacked continuity”. For the same compound, the figures for the IC50 with UTI89 biofilm [9] (mannoside added at 24h), in the data set on UTI89 biofilm [9] (mannoside added at 48h) and in the data set with UTI89 biofilm [11] were roughly 6000 nM, roughly 25000 nM and 740 nM, respectively. In the data set on UTI89 [10] (6 hpi, UTI89 pre-incubated with 10 µM), the IBCs entry was “most significant reduction in IBCs”. Further, in the data set with UTI89 [10] (10^6 inoculum, 6h), the “IBC counts in the bladder” value is reported as “no IBCs observed”. For the same compound, the IBC quantification result in the data set with UTI89 [10] (IP (5 mg/kg) 30 min prior to inoculation, 6 hpi) is on record as “significant reduction in IBCs”; with UTI89 [10] (oral (100 mg/kg) 30 min prior to inoculation, 6 hpi), “significant reduction in IBCs”. Moreover, the “difference in cell potency vs. binding (drop in cell activity relative to binding)” value on FimH [12] (HA titer vs FP EC50) turned out to be 4 fold. For the same compound, on FimH [12], the “inhibition of FimH-dependent hemagglutination” value is reported as “potent inhibitors”. For the same compound, the concentration for an effect of 90% (EC90) at FimH [12] (read-out: HA 50% titer EC90) came out at 370 nM. The 2 week titers entry in the data set on UTI89 [13] (10^6 inoculum, single dose 5mg/kg 30 min prior) is “significant decrease in bacterial load”. Besides, the bacterial titers result is on record as “significant decrease” with UTI89 [13] (10^6 inoculum, treated vs untreated mice); “significant drop in bacterial titers” in the data set with UTI89 [13] (24hpi, single IP pretreatment 5mg/kg, 10^7 and 10^6 inoculum). In the data set on UTI89 [13] (24hpi, 5mg/kg IP 1h post-infection plus 2 treatments every 8h), the “bacterial titers, post-infection treatment” value was “no efficacy observed”. Also, the “bacterial titers upon boosting” value in the data set with UTI89 [13] (24hpi, 10^6 inoculum) is listed as “not observed”; in the data set with UTI89 [13] (24hpi, 10^7 inoculum), “further efficacy”.
Compound `COc1cc(Cc2cnc(N)nc2N)cc(OC)c1OC` [TMP, Trimethoprim] gave an MIC in the data set with PBC-1 [7] of 256 µg/mL (≈ 882 µM). The concentration in urine in [14] was 9950 ± 4360 µg/mL.
For the compound `COC(=O)c1cccc(-c2ccc(OC3OC(CO)C(O)C(O)C3O)cc2)c1` (centres unmarked) [ZFH253], the solubility result in data set [5] (in words) is “insoluble”. Besides, in the data set on UTI89 [8] (setting [15]), the intracellular bacteria result is reported as “significant reduction in intracellular bacteria” and the luminal bacteria result is listed as “reduction was not observed”. Also, the IBCs entry in the data set with UTI89 [10] (6 hours post-infection, 0.1 mM) is “significant decrease in IBCs”. Moreover, in the data set on UTI89 [10] (6 hours post-infection, 1 mM), the IBCs entry was “almost no IBCs observed”. Also, in the data set with UTI89 biofilm [11], the IC50 came to 940 nM. At FimH [12], the “increase in potency in the HA titer assay over ZFH296” value is 16 fold and the “inhibition of FimH-dependent hemagglutination” value is reported as “potent inhibitors”. Also, in the data set on UTI89 [13] (6 hours post-infection, 1 mM treated bacteria), the “CFUs (bacterial load)” value is “significant decrease”.

Broadly, the EC50 is the concentration that produces a half-maximal response. As usually defined, the Kd is the concentration at which binding is half-saturated. The term IC50 denotes the concentration that gives 50% inhibition. As usually defined, the EC90 is the concentration needed for an effect of 90%. A word on the MIC: it is the least concentration at which growth counts as inhibited. Read a high MIC as a less susceptible organism.
